Test results published in US7842685B2, “S1P1 receptor agonists and use thereof” (Amgen Inc., priority 2008, dated 2010).
pEC50: −log10 of the molar value. Counter-ions that a name gives are not always drawn.

Target: T1, hS1P1 receptor (Homo sapiens, UniProt P21453)
T1 construct: host or cells: U2OS
Experiment: hS1P1 receptor internalization assay (cell imaging-based, hS1P1-eGFP U2OS cells)
Conditions: U2OS cell line expressing hS1P1-eGFP, compounds incubated at 37° C. for one hour; for Emax: 1 h, efficacy (Max), read-out: hS1P1 Receptor Internalization (biolimaging) Max (%); for pEC50: GFP-containing endosomes per cell (ArrayScan), read-out: hS1P1 Receptor Internalization (bioimaging) EC50 IP
Description: The activity of compounds of the invention was determined by a cell imaging-based assay measuring the degree of hS1P1 receptor internalization and a Ca^2+ mobilization assay measuring the level of S1P receptor activation. The receptor internalization assay was employed to determine the potency and efficacy of compounds on hS1P1 receptor, while Ca^2+ mobilization assay was used to determine selectivity among different S1P receptors and activity on S1P receptors from species such as rat, dog, and cyno. The hS1P1 receptor internalization assay was performed using a U2OS cell line expressing hS1P1-eGFP chimeric protein (Thermo Scientific, Soeborg, Denmark). Upon compound treatment, the hS1P1 receptor was internalized in cytoplasma and formed GFP-containing-endosomes. This event was detected by an automated microscope, ArrayScan (Thermo Scientific Cellomics, Pittsburg), and the degree of receptor internalization is quantitated by counting green fluorescent GFP-containing endosomes per cell. In this assay, hS1P1-eGFP expressing U2OS cells were starved in serum free media for two hours prior to compound treatment. Then compounds were incubated with the starved cells at 37° C. for one hour. Subsequently, compound-treated cells were fixed using 4% formaldehyde, and the nuclei were stained using Hoechst. Then the cells were imaged in ArrayScan. The potency and efficacy of the compounds were determined by plotting the number of green fluorescent GFP-containing endosomes per cell against corresponding compound concentration.

T1 sequence (P21453 whole entry): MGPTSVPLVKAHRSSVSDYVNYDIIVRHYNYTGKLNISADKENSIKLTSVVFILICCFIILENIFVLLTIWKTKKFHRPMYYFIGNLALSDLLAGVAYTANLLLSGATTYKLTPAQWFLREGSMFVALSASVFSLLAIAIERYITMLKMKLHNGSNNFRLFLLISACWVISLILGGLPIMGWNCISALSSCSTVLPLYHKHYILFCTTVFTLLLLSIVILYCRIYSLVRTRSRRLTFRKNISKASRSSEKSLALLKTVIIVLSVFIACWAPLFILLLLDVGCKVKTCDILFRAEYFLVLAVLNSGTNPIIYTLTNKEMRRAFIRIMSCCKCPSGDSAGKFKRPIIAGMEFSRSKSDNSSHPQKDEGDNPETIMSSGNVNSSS

Row | SMILES | Emax [%] | pEC50
1 | CS(=O)(=O)NCCc1ccc(-c2nc3ccc(C4(c5ccccc5)CC4)nc3s2)c(F)c1 [Example 61, N-(2-(3-fluoro-4-(5-(1-phenylcyclopropyl)[1,3]thiazolo[5,4-b]pyridin-2-yl)phenyl)ethyl)methanesulfonamide] | 491 | 5.60
2 | O=C(O)C1CN(Cc2ccc(-c3nc4ccc(C5(c6ccccn6)CC5)cc4s3)c(F)c2)C1 [Example 62, 1-((3-fluoro-4-(6-(1-(pyridine-2-yl)cyclopropyl)benzo[d]thiazol-2-yl)-phenyl)methyl)azetidine-3-carboxylic acid] | 98 | 5.43
3 | Cc1cc(-c2nc3ccc(C4(c5ccccc5)CC4)nc3s2)cc(C)c1OC[C@H](O)CO [Example 67, (R)-3-(2,6-dimethyl-4-(5-(1-phenylcyclopropyl)thiazolo[5,4-b]pyridin-2-yl)phenoxy)propane-1,2-diol] | 125 | 7.15
4 | c1ccc(C2(c3ccc4nc(-c5ccc6c(c5)CCNC6)sc4n3)CC2)cc1 [Example 80, 5-(1-phenylcyclopropyl)-2-(1,2,3,4-tetrahydroisoquinolin-6-yl)thiazolo-[5,4-b]pyridine] | 148 | 6.25
5 | O=C(O)CN1CCc2cc(-c3nc4ccc(C5(c6ccccc6)CC5)nc4s3)ccc2C1 [Example 82, 2-(6-(5-(1-phenylcyclopropyl)thiazolo[5,4-b]pyridin-2-yl)-3,4-dihydroisoquinolin-2(1H)-yl)acetic acid] | 106 | 7.34
6 | O=C(O)COCc1ccc(-c2nc3ccc(C4(c5ccccc5)CC4)nc3s2)c(F)c1 [Example 85, 2-(3-fluoro-4-(5-(1-phenylcyclopropyl)thiazolo[5,4-b]pyridin-2-yl)benzyloxy)acetic acid] | 88 | 5.90
7 | O=C(c1ccc(-c2nc3ccc(C4(c5ccccc5)CC4)nc3s2)c(F)c1)N1CCC1 [Example 105, 2-(4-(1-azetidinylcarbonyl)-2-fluorophenyl)-5-(1-phenylcyclopropyl)-[1,3]thiazolo[5,4-b]pyridine] | 63 | 5.48
8 | CN(CCO)C(=O)c1ccc(-c2nc3ccc(C4(c5ccccc5)CC4)nc3s2)c(F)c1 [Example 109, 3-fluoro-N-(2-hydroxyethyl)-N-methyl-4-(5-(1-phenylcyclopropyl)-[1,3]thiazolo[5,4-b]pyridin-2-yl)benzamide] | 41 | 5.63
9 | O=C(NC1CC1)c1ccc(-c2nc3ccc(C4(c5ccccc5)CC4)nc3s2)c(F)c1 [Example 113, N-cyclopropyl-3-fluoro-4-(5-(1-phenylcyclopropyl)[1,3]thiazolo[5,4-b]pyridin-2-yl)benzamide] | 55 | 6.14
10 | O=C(Nc1ccc(-c2nc3ccc(C4(c5ccccc5)CC4)nc3s2)c(F)c1)C(F)(F)F [Example 118, 2,2,2-trifluoro-N-(3-fluoro-4-(5-(1-phenylcyclopropyl)[1,3]thiazolo[5,4-b]pyridin-2-yl)phenyl)acetamide] | 111 | 6.53
11 | CNc1ccc(-c2nc3ccc(C4(c5ccccc5)CC4)nc3s2)c(F)c1 [Example 121, 3-fluoro-N-methyl-4-(5-(1-phenylcyclopropyl)[1,3]thiazolo[5,4-b]pyridin-2-yl)aniline] | 125 | 6.11
12 | O=C(O)CCS(=O)(=O)Nc1ccc(-c2nc3ccc(C4(c5ccccc5)CC4)nc3s2)c(F)c1 [Example 124, 3-((3-fluoro-4-(5-(1-phenylcyclopropyl)[1,3]thiazolo[5,4-b]pyridin-2-yl)phenyl)sulfamoyl)propanoic acid] | 131 | 6.02
13 | c1ccc(C2(c3ccc4nc(-c5ccc6[nH]ccc6c5)sc4n3)CC2)cc1 [Example 136, 2-(1H-indol-5-yl)-5-(1-phenylcyclopropyl)thiazolo[5,4-b]pyridine] | 101 | 6.72
14 | CC(=O)NCCc1ccc(-c2nc3ccc(C4(c5ccccc5)CC4)nc3s2)c(F)c1 [Example 150, N-(2-(3-fluoro-4-(5-(1-phenylcyclopropyl)[1,3]thiazolo[5,4-b]pyridin-2-yl)phenyl)ethyl)acetamide] | 155 | 6.73

Second part, the compound after the results:

Row | Emax [%] | pEC50 | SMILES
15 | 133 | 7.35 | O=C(O)[C@@H]1C[C@@H](Oc2ccc(-c3nc4ccc(C5(c6ccccc6)CC5)nc4s3)cc2)CN1 [Example 72, (2S,4R)-4-(4-(5-(1-phenylcyclopropyl)thiazolo[5,4-b]pyridin-2-yl)phenoxy)pyrrolidine-2-carboxylic acid]
16 | 150 | 7.42 | O=C(O)CC1CN(Cc2ccc(-c3nc4ccc(C5(c6ccccc6)CC5)nc4s3)c(F)c2)C1 [Example 79, 2-(1-(3-fluoro-4-(5-(1-phenylcyclopropyl)thiazolo[5,4-b]pyridin-2-yl)-benzyl)azetidin-3-yl)acetic acid]
17 | 131 | 7.49 | C[C@H](CC(=O)O)NCc1ccc(-c2nc3ccc(C4(c5ccccc5)CC4)nc3s2)c(F)c1 [Example 91, (R)-3-(3-fluoro-4-(5-(1-phenylcyclopropyl)thiazolo[5,4-b]pyridin-2-yl)benzylamino)butanoic acid hydrochloride]
18 | 105 | 7.96 | O=C(O)c1cn(Cc2ccc(-c3nc4ccc(C5(c6ccccc6)CC5)nc4s3)c(F)c2)cn1 [Example 96, 1-(3-fluoro-4-(5-(1-phenylcyclopropyl)thiazolo[5,4-b]pyridin-2-yl)benzyl)-1H-imidazole-4-carboxylic acid hydrochloride]
19 | 93 | 7.35 | O=C(O)c1cnn(Cc2ccc(-c3nc4ccc(C5(c6ccccc6)CC5)nc4s3)c(F)c2)c1 [Example 98, 1-(3-fluoro-4-(5-(1-phenylcyclopropyl)thiazolo[5,4-b]pyridin-2-yl)benzyl)-1H-pyrazole-4-carboxylic acid hydrochloride]
20 | 100 | 9.22 | N[C@H](CC(=O)O)C(=O)Nc1ccc(-c2nc3ccc(C4(c5ccccc5)CC4)nc3s2)c(F)c1 [Example 126, N-(3-fluoro-4-(5-(1-phenylcyclopropyl)[1,3]thiazolo[5,4-b]pyridin-2-yl)phenyl)-D-alpha-asparagine TFA salt]
21 | 89 | 7.94 | O=C(O)[C@H]1C[C@@H](Nc2ccc(-c3nc4ccc(C5(c6ccccc6)CC5)nc4s3)c(F)c2)C1 [Example 130, cis-3-((3-fluoro-4-(5-(1-phenylcyclopropyl)[1,3]thiazolo[5,4-b]pyridin-2-yl)phenyl)amino)cyclobutanecarboxylic acid]
22 | 133 | 8.66 | O=C(O)C[C@H](O)C(=O)Nc1ccc(-c2nc3ccc(C4(c5ccccc5)CC4)nc3s2)c(F)c1 [Example 133, (3S)-4-(3-fluoro-4-(5-(1-phenylcyclopropyl)thiazolo[5,4-b]pyridin-2-yl)phenylamino)-3-hydroxy-4-oxobutanoic acid]
